ChEMBL document CHEMBL4177526, “Discovery and structure activity relationship of the first potent cryptosporidium FIKK kinase inhibitor” (Bioorg Med Chem, 2017)

Tests used:
[1] = target: Mitogen-activated protein kinase kinase kinase kinase 5 (Homo sapiens) (UniProt Q9Y4K4); test: Inhibition of MAP4K5 (unknown origin) assessed as residual activity at 500 nM relative to control
[2] = target: RAC-beta serine/threonine-protein kinase (Homo sapiens) (UniProt P31751); test: Inhibition of human PKBbeta (120 to 481 residues) assessed as residual activity at 500 nM in presence of 33P-ATP by filter binding assay relative to control
[3] = target: Tyrosine-protein kinase JAK2 (Homo sapiens) (UniProt O60674); test: Inhibition of JAK2 (unknown origin) assessed as residual activity at 500 nM relative to control
[4] = target: MAP/microtubule affinity-regulating kinase 3 (Homo sapiens) (UniProt P27448); test: Inhibition of human MARK3 (2 to 729 residues) assessed as residual activity at 500 nM in presence of 33P-ATP by filter binding assay relative to control
[5] = target: AMPK alpha1/beta2/gamma1 (Homo sapiens) (UniProt O43741+P54619+Q13131); test: Inhibition of human AMPKalpha1 (11 to 559 residues)/beta2 (1 to 272 residues)/gamma1 (1 to 331 residues) assessed as residual activity at 500 nM in presence of 33P-ATP by filter binding assay relative to control; format: protein-complex assay
[6] = target: Casein kinase II subunit alpha (Homo sapiens) (UniProt P68400); test: Inhibition of human CK2alpha (2 to 391 residues) assessed as residual activity at 500 nM in presence of 33P-ATP by filter binding assay relative to control
[7] = target: Serine/threonine-protein kinase PAK 6 (Homo sapiens) (UniProt Q9NQU5); test: Inhibition of human PAK6 (2 to 681 residues) assessed as residual activity at 500 nM in presence of 33P-ATP by scintillation counting method relative to control
[8] = target: Eukaryotic elongation factor 2 kinase (Homo sapiens) (UniProt O00418); test: Inhibition of human EF2K (2 to 725 residues) assessed as residual activity at 500 nM in presence of 33P-ATP by filter binding assay relative to control
[9] = target: Serine/threonine-protein kinase PLK1 (Homo sapiens) (UniProt P53350); test: Inhibition of human PLK1 (1 to 603 residues) assessed as residual activity at 500 nM in presence of 33P-ATP by filter binding assay relative to control
[10] = target: Insulin receptor (Homo sapiens) (UniProt P06213); test: Inhibition of human IR (1001 to 1382 residues) assessed as residual activity at 500 nM in presence of 33P-ATP by filter binding assay relative to control
[11] = target: Mitogen-activated protein kinase 13 (Homo sapiens) (UniProt O15264); test: Inhibition of human p38delta (1 to 365 residues) assessed as residual activity at 500 nM in presence of 33P-ATP by filter binding assay relative to control
[12] = target: Calcium/calmodulin-dependent protein kinase type 1 (Homo sapiens) (UniProt Q14012); test: Inhibition of human CAMK1 (2 to 369 residues) assessed as residual activity at 500 nM in presence of 33P-ATP by filter binding assay relative to control
[13] = target: Ephrin type-B receptor 1 (Homo sapiens) (UniProt P54762); test: Inhibition of human EPHB1 (565 to 984 residues) assessed as residual activity at 500 nM in presence of 33P-ATP by filter binding assay relative to control
[14] = target: Angiopoietin-1 receptor (Homo sapiens) (UniProt Q02763); test: Inhibition of human TIE2 (771 to 1124 residues) assessed as residual activity at 500 nM in presence of 33P-ATP by filter binding assay relative to control
[15] = target: Tyrosine-protein kinase BTK (Homo sapiens) (UniProt Q06187); test: Inhibition of human BTK (2 to 659 residues) assessed as residual activity at 500 nM in presence of 33P-ATP by filter binding assay relative to control
[16] = target: Serine/threonine-protein kinase STK11 (Homo sapiens) (UniProt Q15831); test: Inhibition of human LKB1 (1 to 433 residues) assessed as residual activity at 500 nM in presence of 33P-ATP by filter binding assay relative to control
[17] = target: Mitogen-activated protein kinase 7 (Homo sapiens) (UniProt Q13164); test: Inhibition of human ERK5 (1 to 816 residues) assessed as residual activity at 500 nM in presence of 33P-ATP by filter binding assay relative to control
[18] = target: Ribosomal protein S6 kinase alpha-3 (Homo sapiens) (UniProt P51812); test: Inhibition of human RSK2 assessed as residual activity at 500 nM in presence of 33P-ATP by filter binding assay relative to control
[19] = target: Serine/threonine-protein kinase 24 (Homo sapiens) (UniProt Q9Y6E0); test: Inhibition of human MST3 (1 to 431 residues) assessed as residual activity at 500 nM in presence of 33P-ATP by filter binding assay relative to control
[20] = target: Casein kinase I isoform delta (Homo sapiens) (UniProt P48730); test: Inhibition of human CK1delta (1 to 415 residues) assessed as residual activity at 500 nM in presence of 33P-ATP by filter binding assay relative to control
[21] = target: Insulin receptor-related protein (Homo sapiens) (UniProt P14616); test: Inhibition of human IRR (944 to 1236 residues) assessed as residual activity at 500 nM in presence of 33P-ATP by filter binding assay relative to control
[22] = target: Aurora kinase B (Homo sapiens) (UniProt Q96GD4); test: Inhibition of human Aurora B (1 to 344 residues) assessed as residual activity at 500 nM in presence of 33P-ATP by filter binding assay relative to control
[23] = target: Tyrosine-protein kinase Yes (Homo sapiens) (UniProt P07947); test: Inhibition of human YES1 (1 to 543 residues) assessed as residual activity at 500 nM in presence of 33P-ATP by filter binding assay relative to control
[24] = target: Vascular endothelial growth factor receptor 2 (Homo sapiens) (UniProt P35968); test: Inhibition of VEGFR2 (unknown origin) assessed as residual activity at 500 nM relative to control
[25] = target: TAK1/TAB1 (Homo sapiens) (UniProt Q15750+O43318); test: Inhibition of human TAK1 (1 to 303 residues)/TAB1 (437 to 504 residues) at 500 nM in presence of 33P-ATP by filter binding assay relative to control; format: protein-complex assay
[26] = target: Tyrosine-protein kinase Yes (Homo sapiens) (UniProt P07947); test: Inhibition of human YES1 (1 to 543 residues) at 500 nM by filter binding assay relative to control
[27] = target: Vascular endothelial growth factor receptor 2 (Homo sapiens) (UniProt P35968); test: Inhibition of human VEGFR2 (unknown origin) at 500 nM relative to control

Chain of Tyrosine-protein kinase Yes (Homo sapiens) (P07947 2-543 limits assumed): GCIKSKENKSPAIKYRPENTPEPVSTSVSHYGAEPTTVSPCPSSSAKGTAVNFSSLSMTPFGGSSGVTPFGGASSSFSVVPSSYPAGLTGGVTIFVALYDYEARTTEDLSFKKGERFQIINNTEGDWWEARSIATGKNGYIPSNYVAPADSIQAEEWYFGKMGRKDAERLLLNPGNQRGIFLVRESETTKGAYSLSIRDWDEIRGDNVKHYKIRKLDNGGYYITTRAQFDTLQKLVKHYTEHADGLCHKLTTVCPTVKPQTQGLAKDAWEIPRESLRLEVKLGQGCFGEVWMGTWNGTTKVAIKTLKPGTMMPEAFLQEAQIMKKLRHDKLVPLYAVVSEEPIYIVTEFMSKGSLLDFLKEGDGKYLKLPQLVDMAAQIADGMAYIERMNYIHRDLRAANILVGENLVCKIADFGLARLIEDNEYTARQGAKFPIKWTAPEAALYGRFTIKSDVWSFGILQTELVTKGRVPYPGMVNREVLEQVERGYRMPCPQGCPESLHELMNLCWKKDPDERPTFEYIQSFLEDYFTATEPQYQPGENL
Chain of Serine/threonine-protein kinase PLK1 (Homo sapiens) (P53350 whole entry, the tested form may be a part): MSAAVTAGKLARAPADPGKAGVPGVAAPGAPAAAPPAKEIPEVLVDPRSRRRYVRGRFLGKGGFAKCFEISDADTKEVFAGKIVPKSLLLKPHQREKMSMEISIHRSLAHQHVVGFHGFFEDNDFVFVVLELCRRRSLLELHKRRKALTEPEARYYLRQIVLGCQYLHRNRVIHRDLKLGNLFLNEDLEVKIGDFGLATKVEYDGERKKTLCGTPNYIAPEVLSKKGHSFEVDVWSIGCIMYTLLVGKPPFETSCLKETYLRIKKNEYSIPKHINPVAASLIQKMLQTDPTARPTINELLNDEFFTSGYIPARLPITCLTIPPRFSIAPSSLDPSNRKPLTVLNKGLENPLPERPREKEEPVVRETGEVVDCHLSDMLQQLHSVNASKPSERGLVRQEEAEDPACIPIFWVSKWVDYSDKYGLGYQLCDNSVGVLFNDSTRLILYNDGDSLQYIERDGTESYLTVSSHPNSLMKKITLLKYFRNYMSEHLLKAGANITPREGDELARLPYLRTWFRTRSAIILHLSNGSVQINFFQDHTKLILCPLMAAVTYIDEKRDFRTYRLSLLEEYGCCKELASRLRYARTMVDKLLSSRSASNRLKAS
Chain of Tyrosine-protein kinase BTK (Homo sapiens) (Q06187 whole entry, the tested form may be a part): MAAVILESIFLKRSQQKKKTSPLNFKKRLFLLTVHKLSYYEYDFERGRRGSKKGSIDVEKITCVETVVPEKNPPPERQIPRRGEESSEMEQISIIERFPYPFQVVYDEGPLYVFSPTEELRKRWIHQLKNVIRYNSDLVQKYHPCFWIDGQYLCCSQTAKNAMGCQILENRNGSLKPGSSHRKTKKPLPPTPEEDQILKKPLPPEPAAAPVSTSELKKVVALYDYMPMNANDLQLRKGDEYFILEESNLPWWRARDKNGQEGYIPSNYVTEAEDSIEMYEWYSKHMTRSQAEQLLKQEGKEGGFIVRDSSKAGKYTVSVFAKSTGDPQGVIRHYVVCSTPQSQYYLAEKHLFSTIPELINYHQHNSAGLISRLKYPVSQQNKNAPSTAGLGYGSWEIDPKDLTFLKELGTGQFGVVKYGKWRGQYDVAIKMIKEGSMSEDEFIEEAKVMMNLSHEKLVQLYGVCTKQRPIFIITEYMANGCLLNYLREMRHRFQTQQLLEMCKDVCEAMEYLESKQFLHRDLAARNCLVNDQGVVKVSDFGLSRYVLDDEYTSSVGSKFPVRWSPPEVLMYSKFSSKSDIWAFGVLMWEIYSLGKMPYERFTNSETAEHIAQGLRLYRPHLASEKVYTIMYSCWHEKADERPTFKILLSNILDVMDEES
Chain of Aurora kinase B (Homo sapiens) (Q96GD4 whole entry, the tested form may be a part): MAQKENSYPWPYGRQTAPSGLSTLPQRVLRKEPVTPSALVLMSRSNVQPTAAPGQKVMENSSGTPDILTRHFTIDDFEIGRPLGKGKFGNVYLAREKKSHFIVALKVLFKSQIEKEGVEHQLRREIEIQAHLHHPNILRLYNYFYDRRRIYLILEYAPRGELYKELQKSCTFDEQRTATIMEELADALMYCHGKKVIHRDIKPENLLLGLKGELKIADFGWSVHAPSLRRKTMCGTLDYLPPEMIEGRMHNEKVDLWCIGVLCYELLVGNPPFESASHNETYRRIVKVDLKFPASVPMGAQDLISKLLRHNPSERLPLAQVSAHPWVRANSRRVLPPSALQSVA
Chain of Ephrin type-B receptor 1 (Homo sapiens) (P54762 whole entry, the tested form may be a part): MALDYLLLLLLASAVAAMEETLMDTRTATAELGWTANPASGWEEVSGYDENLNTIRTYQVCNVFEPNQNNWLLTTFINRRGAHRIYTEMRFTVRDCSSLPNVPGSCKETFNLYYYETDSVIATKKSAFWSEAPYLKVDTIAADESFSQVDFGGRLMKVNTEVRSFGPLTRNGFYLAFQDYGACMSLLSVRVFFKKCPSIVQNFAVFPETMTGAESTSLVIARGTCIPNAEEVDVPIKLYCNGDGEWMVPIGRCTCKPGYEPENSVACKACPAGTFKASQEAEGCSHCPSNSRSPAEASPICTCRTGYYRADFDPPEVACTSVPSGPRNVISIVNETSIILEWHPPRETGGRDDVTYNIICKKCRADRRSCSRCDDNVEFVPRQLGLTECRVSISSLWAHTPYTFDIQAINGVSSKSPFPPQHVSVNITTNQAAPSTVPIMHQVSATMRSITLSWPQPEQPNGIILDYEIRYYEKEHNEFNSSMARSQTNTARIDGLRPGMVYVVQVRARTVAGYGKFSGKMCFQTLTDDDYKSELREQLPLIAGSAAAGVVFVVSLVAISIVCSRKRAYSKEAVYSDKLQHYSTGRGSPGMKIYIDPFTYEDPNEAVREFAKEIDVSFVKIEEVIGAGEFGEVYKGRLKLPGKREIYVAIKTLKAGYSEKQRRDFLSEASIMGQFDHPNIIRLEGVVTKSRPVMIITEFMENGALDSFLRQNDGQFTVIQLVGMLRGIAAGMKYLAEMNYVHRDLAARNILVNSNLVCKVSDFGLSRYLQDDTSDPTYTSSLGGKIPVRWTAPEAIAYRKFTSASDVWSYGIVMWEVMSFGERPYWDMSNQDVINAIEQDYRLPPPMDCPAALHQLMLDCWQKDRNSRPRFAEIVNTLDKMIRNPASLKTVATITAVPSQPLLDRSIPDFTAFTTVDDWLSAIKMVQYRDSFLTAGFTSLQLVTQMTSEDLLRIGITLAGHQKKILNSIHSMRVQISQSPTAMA
Chain of MAP/microtubule affinity-regulating kinase 3 (Homo sapiens) (P27448 whole entry, looked up, the tested form may be a part): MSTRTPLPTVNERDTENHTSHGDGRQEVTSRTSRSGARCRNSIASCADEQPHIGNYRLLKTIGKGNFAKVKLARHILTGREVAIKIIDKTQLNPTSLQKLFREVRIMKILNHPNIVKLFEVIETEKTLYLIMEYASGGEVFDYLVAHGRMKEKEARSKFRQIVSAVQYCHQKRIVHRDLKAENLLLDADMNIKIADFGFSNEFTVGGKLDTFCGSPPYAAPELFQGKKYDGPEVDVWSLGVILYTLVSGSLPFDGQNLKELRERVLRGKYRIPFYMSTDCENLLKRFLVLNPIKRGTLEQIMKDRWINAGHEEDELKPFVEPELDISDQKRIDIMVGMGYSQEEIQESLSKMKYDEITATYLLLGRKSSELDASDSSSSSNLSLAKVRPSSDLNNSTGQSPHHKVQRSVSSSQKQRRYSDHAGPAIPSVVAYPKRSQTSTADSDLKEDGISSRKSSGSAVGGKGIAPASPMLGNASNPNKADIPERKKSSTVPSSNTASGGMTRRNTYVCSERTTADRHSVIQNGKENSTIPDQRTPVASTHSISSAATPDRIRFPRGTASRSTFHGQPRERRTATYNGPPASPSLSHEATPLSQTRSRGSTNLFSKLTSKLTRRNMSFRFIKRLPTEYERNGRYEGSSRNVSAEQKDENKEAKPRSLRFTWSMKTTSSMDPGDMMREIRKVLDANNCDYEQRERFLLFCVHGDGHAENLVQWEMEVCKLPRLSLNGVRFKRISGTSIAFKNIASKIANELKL
Chain of Serine/threonine-protein kinase 24 (Homo sapiens) (Q9Y6E0 whole entry, looked up, the tested form may be a part, canonical isoform): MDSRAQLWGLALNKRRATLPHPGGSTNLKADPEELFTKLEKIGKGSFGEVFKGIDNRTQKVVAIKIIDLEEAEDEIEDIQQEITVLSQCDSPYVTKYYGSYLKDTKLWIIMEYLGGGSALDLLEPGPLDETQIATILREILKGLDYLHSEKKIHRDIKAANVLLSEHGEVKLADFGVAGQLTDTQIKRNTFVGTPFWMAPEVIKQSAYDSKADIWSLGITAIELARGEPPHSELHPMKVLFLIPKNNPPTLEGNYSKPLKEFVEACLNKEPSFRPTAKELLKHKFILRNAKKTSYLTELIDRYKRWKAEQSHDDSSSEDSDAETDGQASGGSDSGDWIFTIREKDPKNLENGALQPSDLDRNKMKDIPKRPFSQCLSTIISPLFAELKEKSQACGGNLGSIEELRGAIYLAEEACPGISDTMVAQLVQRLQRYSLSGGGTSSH
Chain of Mitogen-activated protein kinase 13 (Homo sapiens) (O15264 whole entry, the tested form may be a part): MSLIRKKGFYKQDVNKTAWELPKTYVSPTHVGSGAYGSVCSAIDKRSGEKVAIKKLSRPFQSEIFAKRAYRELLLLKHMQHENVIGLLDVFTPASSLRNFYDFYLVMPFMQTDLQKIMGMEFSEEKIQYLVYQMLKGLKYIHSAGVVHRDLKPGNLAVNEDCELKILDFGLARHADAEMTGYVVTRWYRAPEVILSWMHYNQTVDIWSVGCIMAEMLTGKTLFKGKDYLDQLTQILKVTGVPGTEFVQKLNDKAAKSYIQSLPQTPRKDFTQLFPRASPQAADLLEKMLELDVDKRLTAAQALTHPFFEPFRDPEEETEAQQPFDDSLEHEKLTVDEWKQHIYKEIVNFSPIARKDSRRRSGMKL

- Activity [1]: 148%
- Activity [2]: 127%
- Activity [3]: 125%
- Activity [4]: 121%
- Activity [5]: 120%
- Activity [6]: 119%
- Activity [7]: 119%
- Activity [8]: 115%
- Activity [9]: 107%
- Activity [10]: 115%
- Activity [11]: 113%
- Activity [12]: 112%
- Activity [13]: 110%
- Activity [14]: 106%
- Activity [15]: 105%
- Activity [16]: 101%
- Activity [17]: 100%
- Activity [18]: 100%
- Activity [19]: 91%
- Activity [20]: 97%
- Activity [21]: 94%
- Activity [22]: 89%
- Activity [23]: 53%
- Activity [24]: 41%
- inhibition [25]: 60%
- inhibition [26]: 47%
- inhibition [27]: 59%
Compound: Cc1cccc(-c2nc(N)sc2-c2ccc3ncccc3n2)c1
